What was measured:
M1 muscarinic receptor = molecular target: T1, M1 muscarinic receptor (Homo sapiens, UniProt P11229); experiment: Functional mobilization of intracellular calcium (FLIPR) in M1-CHO cells; type: cell-based; details: M1 receptor, calcium mobilization; for Emax: read-out: M1 Efficacy
T1 construct: expressed in transfected cells; host or cells: CHO (M1-CHO)
T1 sequence (P11229 1-460): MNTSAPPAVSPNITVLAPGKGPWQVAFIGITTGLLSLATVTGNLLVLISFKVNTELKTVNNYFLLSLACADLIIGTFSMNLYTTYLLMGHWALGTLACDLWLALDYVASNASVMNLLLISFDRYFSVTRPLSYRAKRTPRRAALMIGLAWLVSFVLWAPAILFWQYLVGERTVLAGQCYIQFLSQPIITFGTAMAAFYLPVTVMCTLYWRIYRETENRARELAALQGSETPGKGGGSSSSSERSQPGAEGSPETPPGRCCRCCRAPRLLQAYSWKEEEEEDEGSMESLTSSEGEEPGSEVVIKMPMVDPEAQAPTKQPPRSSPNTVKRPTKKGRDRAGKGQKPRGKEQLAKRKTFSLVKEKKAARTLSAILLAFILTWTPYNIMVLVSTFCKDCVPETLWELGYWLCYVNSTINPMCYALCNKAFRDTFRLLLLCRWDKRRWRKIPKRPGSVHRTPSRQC
Outline: (§1)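 CHO cells stably expressing human M1 or M4 receptor were loaded with Fluo-3 AM (or Calcium 3 dye) in Hepes-buffered saline, pH 7.4, with 1 mM probenecid, 0.5% final DMSO. Agonist mode: compound added directly; antagonist mode: 15 min preincubation before carbachol at EC80. FLIPR fluorescence recorded 60 sec.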

M4 muscarinic receptor = molecular target: T2, M4 muscarinic receptor (Homo sapiens, UniProt P08173); experiment: Functional mobilization of intracellular calcium (FLIPR) in M4-CHO cells; type: cell-based; details: M4 receptor, calcium mobilization; for Emax: read-out: M4 Efficacy
T2 construct: expressed in transfected cells; host or cells: CHO (M4-CHO)
T2 sequence (P08173 1-479): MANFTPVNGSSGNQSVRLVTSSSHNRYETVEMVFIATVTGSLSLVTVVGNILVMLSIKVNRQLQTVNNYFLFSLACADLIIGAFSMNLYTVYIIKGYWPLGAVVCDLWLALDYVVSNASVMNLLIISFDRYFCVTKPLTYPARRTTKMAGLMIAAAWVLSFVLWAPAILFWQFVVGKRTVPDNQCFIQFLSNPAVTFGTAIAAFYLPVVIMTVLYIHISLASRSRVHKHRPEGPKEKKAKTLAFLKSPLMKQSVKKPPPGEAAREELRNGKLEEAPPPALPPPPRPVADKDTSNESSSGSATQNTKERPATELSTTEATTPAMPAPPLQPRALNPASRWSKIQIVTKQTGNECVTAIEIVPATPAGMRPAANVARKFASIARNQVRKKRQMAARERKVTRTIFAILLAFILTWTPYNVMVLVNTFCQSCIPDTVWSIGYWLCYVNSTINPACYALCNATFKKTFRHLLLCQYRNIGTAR
Outline: as §1

Row | Structure (SMILES) | M1 Activity (M1 muscarinic receptor) | Emax (M1 muscarinic receptor) [%] | M4 Activity (M4 muscarinic receptor) | Emax (M4 muscarinic receptor) [%]
1 | COCCOC(=O)N1CCC(N2CCC3(CC2)CN(C(=O)N(C)C)c2ccc(F)cc23)CC1 [compound 265] | xx (activity was measured to be between 0.1 μM and 1.0 μM) | < 65 | xx (activity was measured to be between 0.1 μM and 1.0 μM) | < 65
2 | CCCOC(=O)N1CCCC(N2CCC3(CC2)CN(C(C)=O)c2ccc(F)cc23)CC1 (stereo not shown) [compound 266] | x (activity was measured to be greater than 1.0 μM) | < 65 | x (activity was measured to be greater than 1.0 μM) | < 65
3 | CCOC(=O)N1CCC(N2CCC3(CC2)CN(C(=O)c2ccccc2F)c2ccc(F)cc23)CC1 [compound 267] | x (activity was measured to be greater than 1.0 μM) | < 65 | x (activity was measured to be greater than 1.0 μM) | < 65
4 | CC(=O)N1CC2(CCN(C3CCOCC3)CC2)c2cc(F)ccc21 [compound 268] | x (activity was measured to be greater than 1.0 μM) | < 65 | x (activity was measured to be greater than 1.0 μM) | < 65
5 | CC(=O)N1CC2(CCN(C3CCN(C(=O)OC(C)C)CC3)CC2)c2cc(F)ccc21 [compound 269] | xxx (activity was measured to be less than 0.1 μM) | 65 to 85 | xxx (activity was measured to be less than 0.1 μM) | > 85
6 | CCCCC(=O)N1CC2(CCN(C3CCN(C(=O)OCC)CC3)CC2)c2cc(F)ccc21 [compound 270] | xxx (activity was measured to be less than 0.1 μM) | 65 to 85 | xxx (activity was measured to be less than 0.1 μM) | > 85
7 | O=C(OC1CCCC1)N1C2CCC1CC(N1CCC3(CC1)C(=O)Nc1ccccc13)C2 (stereo not shown) [compound 271] | xxx (activity was measured to be less than 0.1 μM) | 65 to 85 | xxx (activity was measured to be less than 0.1 μM) | < 65
8 | c1ccc2c(c1)NCC21CCN(C2CC3CCC2C3)CC1 (stereo not shown) [compound 272] | xxx (activity was measured to be less than 0.1 μM) | 65 to 85 | xxx (activity was measured to be less than 0.1 μM) | > 85
9 | CC(=O)N[C@H]1CC2(CCN(C3CCC(c4ccccc4)CC3)CC2)c2ccccc21 (stereo partly shown) [compound 273] | xxx (activity was measured to be less than 0.1 μM) | > 85 | xx (activity was measured to be between 0.1 μM and 1.0 μM) | > 85
10 | CC(=O)N[C@H]1CC2(CCN([C@H]3C[C@@H]4CC[C@@H]3C4)CC2)c2ccccc21 [compound 274] | xxx (activity was measured to be less than 0.1 μM) | 65 to 85 | x (activity was measured to be greater than 1.0 μM) | > 85
11 | CCOC(=O)N[C@@H]1CC2(CCN(C[C@H]3C[C@H]4CC[C@H]3C4)CC2)c2ccccc21 [compound 275] | xxx (activity was measured to be less than 0.1 μM) | 65 to 85 | xx (activity was measured to be between 0.1 μM and 1.0 μM) | > 85
12 | Clc1ccc2c(c1)C1(CCO2)CCN(C2CCCCC2)CC1 [compound 276] | xxx (activity was measured to be less than 0.1 μM) | 65 to 85 | x (activity was measured to be greater than 1.0 μM) | 65 to 85
13 | CCOC(=O)N1CCC(N2CCC3(CC2)CN(C(C)=O)c2ccc(-c4ccccc4C#N)cc23)CC1 [compound 277] | xxx (activity was measured to be less than 0.1 μM) | 65 to 85 | x (activity was measured to be greater than 1.0 μM) | < 65
14 | CCOC(=O)N1C2CCC1CC(N1CCC3(CC1)c1ccccc1C(=O)C3(C)C)C2 (stereo not shown) [compound 278] | xx (activity was measured to be between 0.1 μM and 1.0 μM) | 65 to 85 | xx (activity was measured to be between 0.1 μM and 1.0 μM) | 65 to 85
15 | CC(=O)N1CC2(CCN(C3CCN(C(=O)O[C@@H]4CCOC4)CC3)CC2)c2cc(C)ccc21 [compound 279] | xx (activity was measured to be between 0.1 μM and 1.0 μM) | < 65 | xx (activity was measured to be between 0.1 μM and 1.0 μM) | < 65
16 | CC(=O)N[C@H]1CC2(CCN(C3CCC(C)CC3)CC2)c2ccccc21 (stereo partly shown) [compound 280] | x (activity was measured to be greater than 1.0 μM) | 65 to 85 | x (activity was measured to be greater than 1.0 μM) | 65 to 85
17 | CCOC(=O)N1CCC(N2CCC3(CC2)CN(C(=O)C2CCCCC2)c2ccc(F)cc23)CC1 [compound 281] | xx (activity was measured to be between 0.1 μM and 1.0 μM) | < 65 | xx (activity was measured to be between 0.1 μM and 1.0 μM) | 65 to 85
18 | CCOC(=O)N1CCC(N2CCC3(CC2)CN(C(=O)C(C)(C)C)c2ccc(F)cc23)CC1 [compound 282] | xxx (activity was measured to be less than 0.1 μM) | < 65 | xx (activity was measured to be between 0.1 μM and 1.0 μM) | 65 to 85
19 | CCCOC(=O)N1C2CCC1CC(N1CCC3(CC1)COc1ccc(F)cc13)C2 (stereo not shown) [compound 283] | xx (activity was measured to be between 0.1 μM and 1.0 μM) | 65 to 85 | x (activity was measured to be greater than 1.0 μM) | 65 to 85
20 | COCCOC(=O)N1CCC(N2CCC3(CC2)CN(C(C)=O)c2ccc(F)cc23)CC1 [compound 284] | xx (activity was measured to be between 0.1 μM and 1.0 μM) | < 65 | xx (activity was measured to be between 0.1 μM and 1.0 μM) | < 65
21 | CC(C)OC(=O)N1C2CCC1CC(N1CCC3(CCc4ccccc43)CC1)C2 (stereo not shown) [compound 285] | xx (activity was measured to be between 0.1 μM and 1.0 μM) | < 65 | x (activity was measured to be greater than 1.0 μM) | < 65
22 | CCCCOC(=O)N1C2CCC1CC(N1CCC3(CC1)COc1ccc(F)cc13)C2 (stereo not shown) [compound 286] | xx (activity was measured to be between 0.1 μM and 1.0 μM) | < 65 | x (activity was measured to be greater than 1.0 μM) | < 65
23 | COC(=O)N1CC2(CCN(C3CC4CCC(C3)N4C(=O)OCC(C)C)CC2)c2cc(F)ccc21 (stereo not shown) [compound 287] | xx (activity was measured to be between 0.1 μM and 1.0 μM) | < 65 | x (activity was measured to be greater than 1.0 μM) | < 65
24 | Clc1ccc2c(c1)C1(CCO2)CCN(CC2CCOCC2)CC1 [compound 288] | x (activity was measured to be greater than 1.0 μM) | < 65 | x (activity was measured to be greater than 1.0 μM) | < 65
25 | CC(C)NC(=O)N1C2CCC1CC(N1CCC3(CC1)COc1ccc(F)cc13)C2 (stereo not shown) [compound 289] | xxx (activity was measured to be less than 0.1 μM) | < 65 | x (activity was measured to be greater than 1.0 μM) | < 65
26 | CCOC(=O)N1CCC(N2CCC3(CC2)CN(C(=O)N2CCOCC2)c2ccc(F)cc23)CC1 [compound 290] | xxx (activity was measured to be less than 0.1 μM) | < 65 | x (activity was measured to be greater than 1.0 μM) | < 65
27 | CC(=O)NC1CC2(CCN(C3CC4CCC3C4)CC2)c2ccccc21 (stereo not shown) [compound 291] | xx (activity was measured to be between 0.1 μM and 1.0 μM) | 65 to 85 | x (activity was measured to be greater than 1.0 μM) | 65 to 85
28 | Cc1ccc2c(c1)C1(CCN(C3CC4CCC3C4)CC1)CN2C(=O)c1ccno1 (stereo not shown) [compound 292] | xx (activity was measured to be between 0.1 μM and 1.0 μM) | 65 to 85 | x (activity was measured to be greater than 1.0 μM) | 65 to 85

Reference: US7786141B2 (Vertex Pharmaceuticals Incorporated, priority 2004, dated 2010)
